Like-named read-outs stand apart in the source and are kept apart here.
What was measured:
[1] = molecular target: T1, 5-HT1A receptor (Homo sapiens, UniProt P08908); assay: cAMP accumulation assay, 5-HT1A function; assay type: cell-based; conditions: for IC50: cells marked IC50 (antagonist), read-out: 5-HT1A Function cAMP IC50; for Emax / 5-HT1A Function cAMP (Emax): in brackets after EC50 or IC50; for Emax: read-out: 5-HT1A Function cAMP (Emax); for EC50: cells marked EC50 (agonist)
T1 sequence (P08908 1-422): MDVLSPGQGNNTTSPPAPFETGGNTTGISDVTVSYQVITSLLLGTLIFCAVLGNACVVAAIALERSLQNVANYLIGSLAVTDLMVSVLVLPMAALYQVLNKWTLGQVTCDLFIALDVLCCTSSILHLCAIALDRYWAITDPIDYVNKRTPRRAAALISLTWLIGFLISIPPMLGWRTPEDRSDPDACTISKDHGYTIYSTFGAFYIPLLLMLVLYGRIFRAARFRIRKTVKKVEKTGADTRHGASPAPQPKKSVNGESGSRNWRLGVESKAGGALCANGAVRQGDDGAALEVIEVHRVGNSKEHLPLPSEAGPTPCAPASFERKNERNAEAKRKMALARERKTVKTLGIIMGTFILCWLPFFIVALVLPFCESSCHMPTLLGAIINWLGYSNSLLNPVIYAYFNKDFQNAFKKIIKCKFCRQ

[2] = molecular target: T1, 5-HT1A receptor; assay: 5-HT1A receptor affinity: displacement of [3H] 8-OH-DPAT; assay type: binding; design: expressed in transfected cells; conditions: displacement of [3H] 8-OH-DPAT; CHO cells stably transfected with human 5-HT1A receptors; read-out: 5-HT1A Receptor Affinity Ki
[3] = molecular target: T2, cloned human 5-HT1A receptors (Homo sapiens, UniProt P08908); assay: 35S-GTPγS binding assay, 5-HT1A function; assay type: biochemical; conditions: for IC50: antagonist potency, reversal of 8-OH-DPAT, read-out: 5-HT1A Function GTPγS IC50; for EC50: agonist potency
T2 construct: expressed in transfected cells
T2 sequence (P08908 1-422): T1 sequence (P08908 1-422)

[4] = molecular target: T3, serotonin transporter (Rattus norvegicus, UniProt P31652); assay: 5-HT transporter affinity: displacement of 3H-paroxetine from male rat cortical membranes; assay type: binding; conditions: displacement of 3H-paroxetine; male rat cortical membranes; read-out: 5-HT Transporter Affinity Ki
T3 construct: displace ^3H-paroxetine from male rat cortical membranes; from tissue; host or cells: male rat cortical membranes
T3 sequence (P31652 whole entry): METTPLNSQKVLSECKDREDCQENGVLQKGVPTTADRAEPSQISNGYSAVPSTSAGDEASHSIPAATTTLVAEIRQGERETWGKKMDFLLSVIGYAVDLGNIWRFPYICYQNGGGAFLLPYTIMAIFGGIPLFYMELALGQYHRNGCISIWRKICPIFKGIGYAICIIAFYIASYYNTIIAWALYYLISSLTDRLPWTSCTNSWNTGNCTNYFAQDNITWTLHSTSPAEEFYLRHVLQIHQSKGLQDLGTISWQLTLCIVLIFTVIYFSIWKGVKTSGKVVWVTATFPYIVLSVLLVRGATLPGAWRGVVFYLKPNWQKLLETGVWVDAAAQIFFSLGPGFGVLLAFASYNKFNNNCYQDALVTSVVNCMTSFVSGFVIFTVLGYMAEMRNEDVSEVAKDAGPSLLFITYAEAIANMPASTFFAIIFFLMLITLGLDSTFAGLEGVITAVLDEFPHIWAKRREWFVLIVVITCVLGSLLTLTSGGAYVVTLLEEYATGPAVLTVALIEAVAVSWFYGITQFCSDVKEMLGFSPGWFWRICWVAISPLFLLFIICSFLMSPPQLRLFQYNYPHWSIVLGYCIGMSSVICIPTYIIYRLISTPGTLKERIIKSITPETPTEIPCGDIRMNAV

[5] = maximum inhibitory effect, in brackets after IC50, read-out: 5-HT1A Function GTPγS (Imax)
[6] = maximum stimulatory effect, in brackets after EC50, read-out: 5-HT1A Function GTPγS (Emax)
[7] = maximum inhibitory effect, in brackets after IC50

CC(Cc1c[nH]c2ccc(F)cc12)CN(CC1CC1)[C@H]1COc2c(F)ccc(C(N)=O)c2C1 (single isomer, unassigned) [Compound 155a]
IC50 [1]: 106 nM
Emax [1]: 0%
Ki [2]: 4.16 nM
IC50 [3]: 151 nM
Emax [3, 5]: 100%
Ki [4]: 48.8 nM

CCCN(CCc1c[nH]c2ccc(F)cc12)C1COc2cccc(OC)c2C1 (stereo not shown) [Compound 29, N-[2-(5-fluoro-1H-indol-3-yl)ethyl]-5-methoxy-N-propylchroman-3-amine]
EC50 [1]: 77.1 nM
Emax [1]: 99%
Ki [2]: 7.32 nM
EC50 [3]: 205 nM
Emax [3, 6]: 70%
Ki [4]: 27 nM

CCN(C(C)CCc1c[nH]c2ccc(F)cc12)C1COc2c(F)ccc(C(N)=O)c2C1 (single isomer, unassigned; (-)) [Compound 16a, (−)-3-{ethyl[3-(5-fluoro-1H-indol-3-yl)-1-methylpropyl]amino}-8-fluorochromane-5-carboxamide]
IC50 [1]: 187 nM
5-HT1A Function cAMP (Emax) [1]: 0%
Ki [2]: 37.3 nM
IC50 [3]: 3000 nM
Emax [3, 5]: 100%
Ki [4]: 0.9 nM

CCN(CCCc1coc2c(OC)cccc12)C1COc2c(F)ccc(C(N)=O)c2C1 (stereo not shown) [Compound 162, 3-{ethyl[3-(7-methoxy-1-benzofuran-3-yl)propyl]amino}-8-fluorochromane-5-carboxamide]
Emax [1]: 0%
Ki [2]: 2.09 nM
EC50 [3]: 45.8 nM
Emax [3, 6]: 87%
Ki [4]: 61.5 nM

CCCN(CCCc1c[nH]c2ccc(F)cc12)[C@H]1COc2c(F)ccc(OC)c2C1 [Compound 28, (3R)-8-fluoro-N-[3-(5-fluoro-1H-indol-3-yl)propyl]-5-methoxy-N-propylchroman-3-amine]
EC50 [1]: 36.5 nM
Emax [1]: 86%
Ki [2]: 11 nM
EC50 [3]: 166 nM
Emax [3, 6]: 88%
Ki [4]: 17.5 nM

COc1ccc2[nH]cc(CCCN(C3CCC3)C3COc4c(F)ccc(C(N)=O)c4C3)c2c1 (stereo not shown) [Compound 107, 3-{cyclobutyl[3-(5-methoxy-1H-indol-3-yl)propyl]amino}-8-fluorochromane-5-carboxamide]
IC50 [1]: 45.1 nM
Emax [1]: 0%
Ki [2]: 1.19 nM
IC50 [3]: 253 nM
Emax [3, 5]: 100%
Ki [4]: 834 nM

COc1cccc2c1CC(N(C)CCCc1c[nH]c3ccc(F)cc13)CO2 (stereo not shown) [Compound 33, N-[3-(5-fluoro-1H-indol-3-yl)propyl]-5-methoxy-N-methylchroman-3-amine]
EC50 [1]: 95.2 nM
Emax [1]: 91%
Ki [2]: 40 nM
EC50 [3]: 3.62 nM
Emax [3, 6]: 69%
Ki [4]: 6.8 nM

NC(=O)c1ccc(F)c2c1C[C@@H](N(CC1CC1)CC1CCc3[nH]c4ccc(F)cc4c3C1)CO2 (single isomer, unassigned; (+)) [Compound 178b]
IC50 [1]: 224 nM
5-HT1A Function cAMP (Emax) [1]: 0%
Ki [2]: 9.48 nM
IC50 [3]: 611 nM
5-HT1A Function GTPγS (Imax) [3, 7]: 99%
Ki [4]: 116 nM

CCCN(C(C)CCc1c[nH]c2ccc(F)cc12)C1COc2c(F)ccc(C(N)=O)c2C1 (single isomer, unassigned) [Compound 12a, 8-fluoro-3-[[3-(5-fluoro-1H-indol-3-yl)-1-methylpropyl](propyl)amino]-3,4-dihydro-2H-chromene-5-carboxamide]
IC50 [1]: 47.5 nM
5-HT1A Function cAMP (Emax) [1]: 0%
Ki [2]: 5.19 nM
IC50 [3]: 323 nM
5-HT1A Function GTPγS (Imax) [3, 7]: 96%
Ki [4]: 22 nM

CCN(CCCc1c[nH]c2ccc(Cl)cc12)C1COc2c(F)ccc(C(N)=O)c2C1 (stereo not shown) [Compound 115, 3-[[3-(5-chloro-1H-indol-3-yl)propyl](ethyl)amino]-8-fluorochromane-5-carboxamide]
EC50 [1]: 46 nM
Emax [1]: 77%
Ki [2]: 6.04 nM
EC50 [3]: 52.2 nM
IC50 [3]: 1990 nM
Emax [3, 5]: 72%
Emax [3, 6]: 38%
Ki [4]: 21.4 nM

N#Cc1ccc2[nH]cc(CCCN(C3CCC3)[C@H]3COc4c(F)ccc(C(N)=O)c4C3)c2c1 [Compound 97b, (3R)-3-[[3-(5-cyano-1H-indol-3-yl)propyl](cyclobutyl)amino]-8-fluorochromane-5-carboxamide]
IC50 [1]: 71 nM
Emax [1]: 0%
Ki [2]: 1.98 nM
IC50 [3]: 317 nM
Emax [3, 5]: 100%
Ki [4]: 2.44 nM

COc1cccc2c1CC(N(CCCc1c[nH]c3ccc(C#N)cc13)C1CCC1)CO2 (stereo not shown) [Compound 46, 3-{3-[cyclobutyl(5-methoxy-3,4-dihydro-2H-chromen-3-yl)amino]propyl}-1H-indole-5-carbonitrile]
IC50 [1]: 899 nM
Emax [1]: 0%
Ki [2]: 14.6 nM
EC50 [3]: 107 nM
IC50 [3]: 218 nM
Emax [3, 5]: 81%
Emax [3, 6]: 36%
Ki [4]: 7.6 nM

CCN(CCCc1c[nH]c2ccc(F)cc12)C1COc2cccc(C(N)=O)c2C1 (stereo not shown) [Compound 149, 3-{ethyl[3-(5-fluoro-1H-indol-3-yl)propyl]amino}chromane-5-carboxamide]
EC50 [1]: 3.65 nM
Emax [1]: 70%
Ki [2]: 2.72 nM
EC50 [3]: 44.9 nM
Emax [3, 6]: 79%
Ki [4]: 9.25 nM

NC(=O)c1ccc(F)c2c1CC(N(CCCc1c[nH]c3cc(F)ccc13)C1CCC1)CO2 (stereo not shown) [Compound 53, 3-{cyclobutyl[3-(6-fluoro-1H-indol-3-yl)propyl]amino}-8-fluorochromane-5-carboxamide]
IC50 [1]: 486 nM
Emax [1]: 0%
Ki [2]: 5.02 nM
IC50 [3]: 512 nM
Emax [3, 5]: 100%
Ki [4]: 237 nM

NC(=O)c1ccc(F)c2c1C[C@@H](NCC1CCc3c([nH]c4ccc(F)cc34)C1)CO2 (single isomer, unassigned; (-)) [Compound 179b]
IC50 [1]: 956 nM
Emax [1]: 0%
Ki [2]: 24.2 nM
IC50 [3]: 6040 nM
5-HT1A Function GTPγS (Imax) [3, 7]: 100%
Ki [4]: 85.5 nM

CCCN(CCc1coc2c(OC)cccc12)C1COc2c(F)ccc(C(N)=O)c2C1 (stereo not shown) [Compound 158, 8-fluoro-3-[[2-(7-methoxy-1-benzofuran-3-yl)ethyl](propyl)amino]chromane-5-carboxamide]
Emax [1]: 0%
Ki [2]: 232 nM
EC50 [3]: 10600 nM
Emax [3, 6]: 59%
Ki [4]: 120 nM

CCN(C(C)CCc1c[nH]c2ccc(F)cc12)C1COc2c(F)ccc(C(N)=O)c2C1 (single isomer, unassigned; (+)) [Compound 16b, (+)-3-{ethyl[3-(5-fluoro-1H-indol-3-yl)-1-methylpropyl]amino}-8-fluorochromane-5-carboxamide]
EC50 [1]: 164 nM
5-HT1A Function cAMP (Emax) [1]: 64.5%
Ki [2]: 128 nM
EC50 [3]: 807 nM
Emax [3, 6]: 20%
Ki [4]: 0.95 nM

CCCN(CCCc1coc2c(OC)cccc12)C1COc2c(F)ccc(C(N)=O)c2C1 (stereo not shown) [Compound 163, 8-fluoro-3-[[3-(7-methoxy-1-benzofuran-3-yl)propyl](propyl)amino]chromane-5-carboxamide]
Emax [1]: 0%
Ki [2]: 0.74 nM
EC50 [3]: 4.56 nM
Emax [3, 6]: 52%
Ki [4]: 539 nM

NC(=O)c1ccc(Cl)c2c1CC(N(CCCc1c[nH]c3ccc(F)cc13)C1CCC1)CO2 (stereo not shown) [Compound 7, 8-chloro-3-{cyclobutyl[3-(5-fluoro-1H-indol-3-yl)propyl]amino}chromane-5-carboxamide]
IC50 [1]: 59.7 nM
Emax [1]: 0%
Ki [2]: 6.21 nM
IC50 [3]: 1650 nM
Emax [3, 5]: 100%
Ki [4]: 3.2 nM

NC(=O)c1ccc(F)c2c1CC(N(CCC(=O)c1c[nH]c3ccc(F)cc13)C1CCC1)CO2 (stereo not shown) [Compound 8, 3-{cyclobutyl[3-(5-fluoro-1H-indol-3-yl)-3-oxopropyl]amino}-8-fluorochromane-5-carboxamide]
IC50 [1]: 478 nM
Emax [1]: 0%
Ki [2]: 103 nM
IC50 [3]: 1380 nM
Emax [3, 5]: 100%
Ki [4]: 259 nM

NC(=O)c1ccc(F)c2c1C[C@@H](NCC1CCc3[nH]c4ccc(F)cc4c3C1)CO2 (single isomer, unassigned; (+)) [Compound 175b]
IC50 [1]: 4130 nM
5-HT1A Function cAMP (Emax) [1]: 0%
Ki [2]: 31.4 nM
IC50 [3]: 174 nM
5-HT1A Function GTPγS (Imax) [3, 7]: 55%
Ki [4]: 47.6 nM

O=C(NC1CCC1)c1ccc(F)c2c1CC(N(CCCc1c[nH]c3ccc(F)cc13)C1CCC1)CO2 (stereo not shown) [Compound 65, N-cyclobutyl-3-{cyclobutyl[3-(5-fluoro-1H-indol-3-yl)propyl]amino}-8-fluorochromane-5-carboxamide]
IC50 [1]: 358 nM
Emax [1]: 0%
Ki [2]: 214 nM
IC50 [3]: 91.5 nM
Emax [3, 5]: 48%
Ki [4]: 3.98 nM
